These results are taken from patent US20060040919A1, “Bronchorelaxing compounds” (priority 2004, published 2006).

What is called melting point is the temperature of the solid-liquid transition.

Data set [1] relates to human bronchus preparation. The experiment in a line: Bronchorelaxation test: LTD4-induced contraction of human bronchus preparation. Conditions: 10 μM capsazepine, 1 h exposure, then 10 nM LTD4; compared with control LTD4 contraction; exemplary test of FIG. 7. On the procedure:
Dissection and mounting of lung tissue preparations. Lung tissue was obtained from patients undergoing lobectomia or pulmectomia due to lung carcinoma. The tissue was placed in a dissection chamber continuously perfused with 10 ml min^−1 of a physiological saline solution (PSS) at room temperature. An airway was identified in the cut part of the lobe, and a bronchus of 10-20 mm length and 1-2 mm diameter was obtained. The bronchus was cut into rings of a width of about 2-3 mm. Each bronchial ring was cleaved to obtain an about rectangular oblong preparation, one end of which was tied to a small steel hook connected to a force transducer, while the other end of the preparation was attached to a fixed hook. This is followed by a period of adjustment, as described below. The preparation was mounted in an atmosphere containing […] and 6% of CO2.
Experimental chamber. The experimental chamber has a volume of 5 ml. It is perfused with PSS at a rate of 3 ml min^−1. Two preparations are mounted in the chamber, and measurements on them are performed in parallel. For mechanical tensioning each force transducer (AME 801, SensoNor A/S, Horten, Norway) is connected to a micrometer screw. The substances to be tested, the reference substance (capsazepine), and transmitter (LTD4) are injected upstream of the preparation(s).
Materials. […]

Molecules are shown by their SMILES.

In turn, `Oc1c(O)c(Cl)c2c(c1Cl)CCN(C(=S)NCCc1ccc(Cl)cc1)C2` [Res-4-95, 5,8-Dichloro-N-[2-(4-chlorophenyl)ethyl]-6,7-dihydroxy-3,4-dihydroisoquinoline-2(1H)-carbothioamide] displayed a melting point of 83 to 86 °C.

As to `Oc1cc2c(cc1O)CN(C(=S)NCCc1ccc(Cl)cc1)CCC2` [capsazepine], the “remaining contraction (test force) relative to that caused by the control force” value in data set [1] is listed as “about 55%”.
